According to patent US8178530B2, “Imidazolopyrazine compounds useful for the treatment of degenerative and inflammatory diseases” (Janssen Pharmaceutica NV, priority 2006, dated 2012):

Columns and labels:
MAPKAPK5 = molecular target: T1, MAPKAPK5 (Homo sapiens, UniProt Q8IW41); test: MAPKAP-K5 assay (FlashPlate, 33P-ATP); type: biochemical; settings: 0.6 μM ATP, 30 minutes at room temperature
T1 construct: 1 mU MAPKAP-K5
T1 sequence (Q8IW41 1-473): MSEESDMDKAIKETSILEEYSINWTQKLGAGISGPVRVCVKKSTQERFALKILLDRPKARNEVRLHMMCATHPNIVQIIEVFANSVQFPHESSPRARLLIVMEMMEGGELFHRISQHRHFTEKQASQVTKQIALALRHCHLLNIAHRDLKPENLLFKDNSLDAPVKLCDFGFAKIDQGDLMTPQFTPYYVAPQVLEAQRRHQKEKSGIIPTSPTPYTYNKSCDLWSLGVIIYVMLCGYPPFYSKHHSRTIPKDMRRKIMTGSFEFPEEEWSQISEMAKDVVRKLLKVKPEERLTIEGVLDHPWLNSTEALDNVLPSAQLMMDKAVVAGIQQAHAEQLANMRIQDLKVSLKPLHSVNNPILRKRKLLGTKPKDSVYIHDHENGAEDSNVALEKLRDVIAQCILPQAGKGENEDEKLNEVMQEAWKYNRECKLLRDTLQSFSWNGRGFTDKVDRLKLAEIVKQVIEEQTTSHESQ
Experimental: 3 μM MAPKAP-K5 peptide substrate

MMP1 expression by SFs = test: 'MMP assay': MMP1 expression by 'complex trigger' activated synovial fibroblasts (MMP1 ELISA); type: cell-based, human; settings: Homo sapiens, Fibroblast, RASFs, 48 hrs
Experimental: A 384-well format ELISA for measurement of MMP1 is developed. Various primary antibodies are tested, as well as various ELISA protocols. The following protocol is developed and validated to measure MMP1 levels in SF supernatant in 384 well plates: white Lumitrac 600 384 well plates (Greiner) are coated with 2 μg/mL anti-MMP1 antibody MAB1346 (Chemicon). The antibody is diluted in buffer 40 (1.21 g Tris base (Sigma), 0.58 g NaCl (Calbiochem) and 5 ml 10% NaN3 (Sigma) in 1 L milliQ water and adjusted to pH 8.5). After overnight incubation at 4° C., plates are washed with PBS (80 g NaCl, 2 g KCl (Sigma), 11.5 g Na2HPO4.7H2O and 2 g KH2PO4 in 10 L milliQ; pH 7.4) and blocked with 100 μL/well Casein buffer (2% Casein (VWR International) in PBS). Next day, casein buffer is removed from ELISA plates and replaced by 50 μL/well EC buffer (4 g casein, 2.13 g Na2HPO4 (Sigma), 2 g bovine albumin (Sigma), 0.69 g NaH2PO4.H2O (Sigma), 0.5 g CHAPS (Roche), 23.3 g NaCl, 4 mL 0.5 M EDTA pH 8 (Invitrogen), 5 mL 10% NaN3 in 1 L milliQ and adjusted to pH 7.0). 0.25 mM DTT (Sigma) is added to the thawed samples plates. After removal of the EC buffer, 20 μL of sample is transferred to the ELISA plates. After overnight incubation at 4° C. plates are washed twice with PBS and once with PBST (PBS with 0.05% Tween-20 (Sigma)) and incubated with 35 μL/well biotinylated anti-MMP1 antibody solution (R&D). This secondary antibody is diluted in buffer C (0.82 g NaH2PO4.H2O, 4.82 g Na2HPO4, 46.6 g NaCl, 20 g bovine albumin and 4 mL 0.5M EDTA pH 8 in 2 L milliQ and adjusted to pH 7.0) at a concentration of 5 μg/mL. After 2 h of incubation at RT, plates are washed as described above and incubated with 50 μL/well streptavidin-HRP conjugate (Biosource). Streptavidin-HRP conjugate is diluted in buffer C at a concentration of 0.25 μg/mL. After 45 min, plates are washed as described above and incubated for 5 min with 50 μL/well BM Chem ELISA Substrate (Roche). Readout is performed on the Luminoscan Ascent Luminometer (Labsystems) with an integration time of 200 msec or with an Envision reader (Perkin Elmer).
The increase of MMP1 expression by SFs upon treatment with cytokines relevant in the field of RA (TNF-α, IL1β and OSM) or a combination thereof is shown in FIG. 2 as white bars. For this experiment, SFs are seeded in 96 well plates, 3,000 cells/well. 24 h later, the medium is changed to M199 medium supplemented with 1% FBS. One day after the medium change, cytokines or combinations thereof are added to the cultures, each cytokine being added to a final concentration of 25 ng/mL. 72 h after cytokine addition, the supernatant is collected and processed in the MMP1 ELISA as described in the protocol given above. In parallel with this experiment, SFs are triggered, using the same protocol, with the supernatant of THP1 cells (2-fold diluted in M199+1% FBS) treated with the same cytokines or combinations of cytokines for 48 h in M199 medium+1% FBS. The induction of the MMP1 expression by SFs triggered with the supernatants of TNF-α-treated THP1 cells is stronger (>4.5 fold induction) as compared to the SFs triggered with recombinant TNF-α alone (3-fold induction) and almost equals the 5-fold induction obtained by a mixture of 3 purified cytokines (TNF-α, IL1βb, OSM). […] As the role of TNF-α in the RA pathogenesis is validated (TNF-α-blockers such as Infliximab and Etanercept show some efficacy in the treatment of RA patients) and the THP-1 cells are representative for monocytes/macrophages present in the joint of RA patients, the TNF-α-based trigger mixture prepared by contacting THP-1 cells with TNF-α will contain factors present in the joints of RA patients and subsequently is relevant to RA. This TNF-α-based complex trigger, further referred to as the ‘complex trigger’, will further be used as basis for the ‘MMP assay’.
Dexamethasone is shown to dose-dependently reduce amounts of MMP1 produced by complex trigger activated SFs. […]

Row | IC50 (MAPKAPK5) [µM] | Structure (SMILES) | EC50 (MMP1 expression by SFs) [µM]
1 | > 1 | CCN(CCO)c1ccc(Nc2ncc(-c3cccc(C(N)=O)c3)n3ccnc23)cc1 [Compound 2] | > 1
2 | > 1 | CCN(CCO)c1ccc(Nc2ncc(-c3ccc(O)cc3C)n3ccnc23)cc1 [Compound 3] | 
3 | > 1 | CCN(CCO)c1ccc(Nc2ncc(-c3ccc(C(N)=O)cc3)n3ccnc23)cc1 [Compound 4] | 0.101 to 0.5
4 | > 1 | CCN(CCO)c1ccc(Nc2ncc(-c3ccc(O)cc3)n3ccnc23)cc1 [Compound 5] | 0.101 to 0.5
5 | > 1 | CCN(CCO)c1ccc(Nc2ncc(-c3ccc(N)cc3)n3ccnc23)cc1 [Compound 6] | > 1
6 | > 1 | CCN(CCO)c1ccc(Nc2ncc(-c3cccc(N)c3)n3ccnc23)cc1 [Compound 7] | > 1
7 | > 1 | c1cn2c(-c3cn[nH]c3)cnc(NCc3ccc(N4CCOCC4)cc3)c2n1 [Compound 8] | 
8 | 0.501 to 1 | CCN(CC)c1ccc(Nc2ncc(-c3cn[nH]c3)n3ccnc23)cc1 [Compound 9] | > 1
9 | > 1 | NC(=O)c1cccc(Nc2ncc(-c3cn[nH]c3)n3ccnc23)c1 [Compound 10] | > 1
10 | > 1 | CCN(CCO)c1ccc(Nc2ncc(-c3cn[nH]c3)n3ccnc23)c(C)c1 [Compound 12] | > 1
11 | > 1 | Nc1ccc(Nc2ncc(-c3cn[nH]c3)n3ccnc23)cc1 [Compound 15] | > 1
12 | > 1 | COc1cccc(Nc2ncc(-c3cn[nH]c3)n3ccnc23)c1 [Compound 16] | > 1
13 | > 1 | Fc1ccc(Nc2ncc(-c3cn[nH]c3)n3ccnc23)cc1Cl [Compound 17] | > 1
14 | > 1 | NC(=O)c1ccc(-c2cnc(Nc3ccc(N)cc3)c3nccn23)cc1 [Compound 18] | > 1
15 | > 1 | COc1cccc(Nc2ncc(-c3ccc(C(N)=O)cc3)n3ccnc23)c1 [Compound 19] | 0.501 to 1
16 | > 1 | COC(=O)c1cccc(Nc2ncc(-c3cn[nH]c3)n3ccnc23)c1 [Compound 20] | > 1
17 | > 1 | c1cn2c(-c3ccc4[nH]ccc4c3)cnc(Nc3ccc(N4CCOCC4)cc3)c2n1 [Compound 21] | > 1
18 | > 1 | CC(C)(C)OC(=O)c1ccc(Nc2ncc(-c3cn[nH]c3)n3ccnc23)cc1 [Compound 22] | > 1
19 | > 1 | O=C(O)c1ccc(Nc2ncc(-c3cn[nH]c3)n3ccnc23)cc1 [Compound 23] | > 1
20 | > 1 | NC(=O)Cn1cc(-c2cnc(Nc3ccc(N4CCOCC4)cc3)c3nccn23)cn1 [Compound 24] | > 1
21 | > 1 | O[C@H]1CC[C@H](Nc2ncc(-c3cn[nH]c3)n3ccnc23)CC1 [Compound 25] | > 1
22 | 0.501 to 1 | CN1CCN(c2ccc(Nc3ncc(-c4ccc(C(N)=O)cc4)n4ccnc34)cc2)CC1 [Compound 26] | 

Row | IC50 (MAPKAPK5) [µM] | Structure (SMILES) | EC50 (MMP1 expression by SFs) [µM]
23 | 0.501 to 1 | c1cn2c(-c3cn[nH]c3)cnc(Nc3ccc4[nH]ccc4c3)c2n1 [Compound 27] | > 1
24 | > 1 | NC(=O)c1ccc(-c2cnc(Nc3ccc4[nH]ccc4c3)c3nccn23)cc1 [Compound 28] | 0.501 to 1
25 | > 1 | NS(=O)(=O)c1ccc(-c2cnc(Nc3ccc(N4CCOCC4)cc3)c3nccn23)cc1 [Compound 29] | > 1
26 | 0.501 to 1 | CS(=O)(=O)Nc1ccc(Nc2ncc(-c3cn[nH]c3)n3ccnc23)cc1 [Compound 30] | > 1
27 | 0.501 to 1 | CC(=O)Nc1ccc(Nc2ncc(-c3cn[nH]c3)n3ccnc23)cc1 [Compound 31] | > 1
28 | > 1 | Cc1cc(Nc2ncc(-c3cn[nH]c3)n3ccnc23)ccc1C(N)=O [Compound 33] | > 1
29 | > 1 | N#Cc1ccc(Nc2ncc(-c3cn[nH]c3)n3ccnc23)cc1Cl [Compound 34] | 0.501 to 1
30 | > 1 | NC(=O)c1ccc(Nc2ncc(-c3cn[nH]c3)n3cc(Br)nc23)cc1 [Compound 37] | > 1
31 | > 1 | NC(=O)c1ccc(Nc2ncc(-c3cn[nH]c3)n3ccnc23)nc1 [Compound 38] | > 1
32 | > 1 | O=C(O)c1ccc(-c2cnc(Nc3ccc(N4CCOCC4)cc3)c3nccn23)cc1F [Compound 39] | > 1
33 | > 1 | Nc1cc(C(=O)O)ccc1-c1cnc(Nc2ccc(N3CCOCC3)cc2)c2nccn12 [Compound 40] | > 1
34 | > 1 | c1cncc(Nc2ncc(-c3cn[nH]c3)n3ccnc23)c1 [Compound 42] | > 1
35 | > 1 | CN1CCN(c2ccc(Nc3ncc(-c4ccc(C(=O)O)cc4)n4ccnc34)cc2)CC1 [Compound 43] | > 1
36 | > 1 | O=C(O)c1ccc(-c2cnc(Nc3ccc(C(=O)NCc4cccnc4)cc3)c3nccn23)cc1 [Compound 44] | > 1
37 | > 1 | CCN(CC)CCNC(=O)c1ccc(Nc2ncc(-c3ccc(C(N)=O)cc3)n3ccnc23)cc1 [Compound 46] | > 1
38 | > 1 | CCN(CC)CCNC(=O)c1ccc(Nc2ncc(-c3ccc(C(=O)O)cc3)n3ccnc23)cc1 [Compound 47] | > 1
39 | > 1 | CCN(CC)CCNC(=O)c1ccc(Nc2ncc(-c3cn[nH]c3)n3ccnc23)cc1OC [Compound 48] | > 1
40 | > 1 | CCc1cnc2c(Nc3ccc(N4CCOCC4)cc3)ncc(-c3cc[nH]c(=O)c3)n12 [Compound 180] | 
41 |  | COc1cc(Nc2ncc(-c3cn[nH]c3)n3ccnc23)ccc1C(=O)NCc1ccc(C)nc1 [Compound 184, 2-Methoxy-N-(6-methylpyridin-3-ylmethyl)-4-[5-(1H-pyrazol-4-yl)imidazo[1,2-a]pyrazin-8-ylamino]benzamide] | 0.101 to 0.5
42 |  | CCc1cnc2c(Nc3ccc(N4CCOCC4)cc3)ncc(-c3cn[nH]c3)n12 [Compound 189, [3-Ethyl-5-(1H-pyrazol-4-yl)imidazo[1,2-a]pyrazin-8-yl]-(4-morpholin-4-yl-phenyl)amine] | 0.501 to 1
43 | 0.101 to 0.5 | CC(C)N1CCN(c2ccc(Nc3ncc(-c4cc5c(s4)C(=O)NC5)n4ccnc34)cc2)CC1 [Compound 228] | 
44 | 0.101 to 0.5 | O=C1NCc2cc(-c3cnc(Nc4cncnc4)c4nccn34)ccc21 [Compound 230] | 
